In US12479858B2, “Macrocyclic compounds as sting agonists and methods and uses thereof” (Lupin Limited, priority 2019, dated 2025):
Where a name gives a salt, the structure may show the parent alone.

Experiments:
[1] = target: T1, Human STING (Homo sapiens, UniProt Q86WV6, G230A/H232R/R293Q/R71H); test: Stimulation of human STING signaling in THP1 cell line (THP1-Blue ISG SEAP reporter); assay type: cell-based; conditions: THP1-Blue ISG cells, SEAP activity, 18-20 hours
T1 construct: using human THP1-Blue™ ISG SEAP based reporter cell line (Invivogen); host or cells: THP1-Blue ISG cells (human monocytic THP-1 derived SEAP reporter line)
Description: Biological Assay—Stimulation of Human STING Signaling in THP1 Cell Line
Compounds were tested for their STING activation potential using human THP1-Blue™ ISG SEAP based reporter cell line (Invivogen). Briefly, THP1-Blue ISG cells (100,000 cells/well) in 96 well plate were treated with varying concentrations of test and reference compounds and incubated at 37° C. with 5% CO2 for 18-20 hours. The control untreated cells were also set up. Post incubation, the cell supernatant was tested for SEAP (Secreted Embryonic Alkaline Phosphatase) activity using the QuantiBlue™ substrate reagent (Invivogen). The formation of blue coloured product was quantified by measuring absorbance at wavelength of 620 nm using PheraStar/Tecan reader. The average of duplicate readouts for each data point was plotted in GraphPad prism 6 against the concentration of test or reference compound to calculate EC50 value. The fold of SEAP induction or increase in luminescence at different data points was estimated against the un-stimulated cell control set.

[2] = tested on: CT26 Allograft; test: Tumor volume in CT26 allograft BALB/c mice model, intravenous administration; assay type: in vivo; conditions: for effect on tumor volume / subjects exhibiting complete tumor regression: i.v., indicated dose at days 1, 4, and 8
Description: Effect of Compounds on Tumor Volume in CT26 Allograft BALB/c Mice Model by Intravenous (i.v.) Administration
Healthy, female BALB/c mice in the age group of 5-8 weeks issued from Research Animal Facility (RAF). These mice were housed in individually ventilated cages (IVC) in the experimental animal room and were acclimatized not less than 5 days prior to cell inoculation. All the experimental activities were carried out inside the biosafety cabinet to ensure sterility. Under aseptic conditions, Allograft tumor model was generated by inoculating BALB/c mice with 0.1 million CT26 single cell suspension (colorectal cancer model), using 1 mL disposable syringe fitted with a 26G ½″ sterile needle. Each mouse was inoculated with 100 μL of CT26 cell suspension in phosphate buffered saline (PBS) media, subcutaneously in right flank region. Mice were randomized into different groups, post cell inoculation, with approximately equal mean and equal variation (S.E.M.) of tumor volumes in various treatment groups including vehicle control group.
Tumor size was measured with Vernier caliper when the tumor became palpable. Tumor volume (T. V.) was calculated by using the formula: Tumor volume (mm^3)=(L×W^2)/2 • Where, L—Length of tumor, W—Width of tumor
Mice were selected and randomized, on the basis of tumor volume, into required no. of groups with approximately equal mean and equal variation on day 1 of treatment, post-tumor cell inoculation. All study groups were treated via intravenous route on day 1, 4 and 8 dosing schedule, through lateral tail vein at a dose volume of 5 mL/kg.
Tumor sizes were measured with Vernier caliper twice weekly and body weights of mice were recorded daily.
Percent tumor growth inhibition (% TGI) was calculated using the formula: % TGI=[1−(Tf−Ti)/(Cf−Ci)]×100 Wherein Tf and Ti are the final and initial test tumor volumes, respectively, and Cf and Ci are the final and initial control mean tumor volumes, respectively.
Percent Tumor Regression (% TR) was calculated using the formula: % TR=[(Initial T.V.−Final T.V.)/(Initial T.V.)]×100 Wherein T.V.=Tumor Volume
Body weight change (%) was calculated by using the formula: Body weight change (%)[=(Final B.Wt.)−(Initial B.Wt.)/Initial B.Wt.]×100 Wherein B.Wt.=Body weight

T1 sequence (Q86WV6 whole entry R71H/G230A/H232R/R293Q): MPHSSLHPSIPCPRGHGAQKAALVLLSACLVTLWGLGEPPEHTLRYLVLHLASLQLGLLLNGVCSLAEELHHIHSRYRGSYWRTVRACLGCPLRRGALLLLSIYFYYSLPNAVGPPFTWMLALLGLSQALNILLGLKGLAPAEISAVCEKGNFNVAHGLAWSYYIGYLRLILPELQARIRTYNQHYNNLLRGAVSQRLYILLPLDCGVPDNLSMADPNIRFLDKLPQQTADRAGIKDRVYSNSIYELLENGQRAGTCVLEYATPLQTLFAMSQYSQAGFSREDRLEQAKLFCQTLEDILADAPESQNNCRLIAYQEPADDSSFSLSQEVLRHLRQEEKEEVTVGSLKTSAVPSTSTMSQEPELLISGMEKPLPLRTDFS

`CCn1nc(C)cc1C(=O)Nc1nc2cc(C(N)=O)cc3c2n1C/C=C/Cn1c(NC(=O)c2cc(C)nn2CC)nc2cc(C(=O)N[C@H]4CC[C@H](C(=O)O)CC4)cc(c21)OCCCO3` [Compound 2, (1R,4R)-4-((E)-12-carbamoyl-1,15-bis(1-ethyl-3-methyl-1H-pyrazole-5-carboxamido)-8,9,16,19-tetrahydro-7H-6,10-dioxa-2,14,15a,19a-tetraazacyclopentadeca[3,2,1-cd:8,9,10-c′d′]diindene-4-carboxamido)cyclohexane-1-carboxylic acid sodium salt] was tested, and the EC50 [1] was 1 to 10 nM, the “effect on body weight” value ([2]; 3 mpk (mg/kg)) was < 10% and the “effect on tumor volume” value [2] was “reduces tumor volume”. For the same molecule, the “subjects exhibiting complete tumor regression” value [2] was 7 out of 9 and the “effect on tumor volume at high dose” value ([2]; two different doses, days 1, 4, and 8, n=10 (FIG. 6)) was “reduces tumor volume”.

With `CCn1nc(C)cc1C(=O)Nc1nc2cc(C(N)=O)cc3c2n1C/C=C/Cn1c(NC(=O)c2cc(C)nn2CC)nc2cc(C(=O)N[C@H]4CC[C@H](C(=O)O)CC4)cc(c21)OC[C@@H](N1C2CCC1COC2)CO3` [Compound 14, (1S,4R)-4-((8S,E)-8-(3-oxa-8-azabicyclo[3.2.1]octan-8-yl)-12-carbamoyl-1,15-bis(1-ethyl-3-methyl-1H-pyrazole-5-carboxamido)-8,9,16,19-tetrahydro-7H-6,10-dioxa-2,14,15a,19a-tetraazacyclopentadeca[3,2,1-cd:8,9,10-c′d′]diindene-4-carboxamido)cyclohexane-1-carboxylic acid sodium salt] the EC50 [1] was 1 to 10 nM, the “effect on tumor volume” value [2] was “reduces tumor volume” and the “subjects exhibiting complete tumor regression” value [2] was 6 out of 9.

`CCn1nc(C)cc1C(=O)Nc1nc2cc(C(N)=O)cc3c2n1C/C=C/Cn1c(NC(=O)c2cc(C)nn2CC)nc2cc(C(=O)N[C@H]4CC[C@H](c5nnn[nH]5)CC4)cc(c21)OC[C@@H](N1C2CCC1COC2)CO3` [Compound 12, (8S,E)-N4-((1R,4S)-4-(1H-tetrazol-5-yl)cyclohexyl)-8-(3-oxa-8-azabicyclo[3.2.1]octan-8-yl)-1,15-bis(1-ethyl-3-methyl-1H-pyrazole-5-carboxamido)-8,9,16,19-tetrahydro-7H-6,10-dioxa-2,14,15a,19a-tetraazacyclopentadeca[3,2,1-cd:8,9,10-c′d′]diindene-4,12-dicarboxamide sodium salt] was tested, and the EC50 [1] was 1 to 10 nM, the “effect on tumor volume” value [2] was “reduces tumor volume” and the “subjects exhibiting complete tumor regression” value [2] was 8 out of 10.

In the case of `CCn1nc(C)cc1C(=O)Nc1nc2cc(C(N)=O)cc3c2n1C/C=C/Cn1c(NC(=O)c2cc(C)nn2CC)nc2cc(C(=O)N[C@H]4CC[C@H](c5nnn[nH]5)CC4)cc(c21)OCCCO3` [Compound 6, (E)-N-((1R,4R)-4-(1H-tetrazol-5-yl)cyclohexyl)-1,15-bis(1-ethyl-3-methyl-1H-pyrazole-5-carboxamido)-8,9,16,19-tetrahydro-7H-6,10-dioxa-2,14,15a,19a-tetraazacyclopentadeca[3,2,1-cd:8,9,10-c′d′]diindene-4,12-dicarboxamide sodium salt], the EC50 [1] is reported as 1 to 10 nM, the “effect on tumor volume” value [2] is reported as “reduces tumor volume” and the “subjects exhibiting complete tumor regression” value [2] is reported as 7 out of 9.

With `CCn1nc(C)cc1C(=O)Nc1nc2cc(C(N)=O)cc3c2n1C/C=C/Cn1c(NC(=O)c2cc(C)nn2CC)nc2cc(C(=O)NCCCn4cc(C(=O)O)cn4)cc(c21)OCCCO3` [Compound 8, (E)-1-(3-(12-carbamoyl-1,15-bis(1-ethyl-3-methyl-1H-pyrazole-5-carboxamido)-8,9,16,19-tetrahydro-7H-6,10-dioxa-2,14,15a,19a-tetraazacyclopentadeca[3,2,1-cd:8,9,10-c′d′]diindene-4-carboxamido)propyl)-1H-pyrazole-4-carboxylic acid sodium salt] the EC50 [1] was 1 to 10 nM, the “effect on tumor volume” value [2] was “reduces tumor volume” and the “subjects exhibiting complete tumor regression” value [2] was 5 out of 9.
